Assays:
[1] = tested on: TNF-α mRNA; assay: TNF-α mRNA expression in murine MIN6 pancreatic beta cells (RT-PCR); assay type: cell-based, mouse; settings: 25 mM glucose, 72 hours
Method: FIGS. 4A-4B. […] MIN6 cells were cultured under 25 mM glucose with C30 and C38 at the indicated concentrations for 72 hours. Total RNA was prepared. RT-PCR was performed and data shown are the mean±SEM from triplicates. Statistical analysis was performed for each column vs. HG DMSO using one-way ANOVA: *p<0.0001. […] MIN6 cells were cultured under 25 mM glucose and treated with C30 and C38 at the indicated concentrations for 72 hours. Total RNA was prepared. RT-PCR was performed and data shown are the mean±SEM from triplicates. Statistical analysis was performed for each column vs. HG DMSO using one-way ANOVA: *p<0.0001.
To ascertain the relevance to pancreatic beta cells, we tested the effects of the lead compounds on key target gene mRNA levels in murine MIN6 pancreatic beta cells.
RNA extraction and quantitative RT-PCR. RNA was extracted using the Direct-zol™ RNA MiniPrep Plus (Zymo Research). Reverse transcription of RNA samples into cDNA was performed using the GeneAmp RNA PCR Kit (Applied Biosystems), dNTP (from Roche Applied Science), Rnase inhibitor, MULV Reverse Transcriptase and Random hexamers reagent (all from Invitrogen). Diluted cDNA was quantified using real-time PCR performed with Power SYBR Green qPCR MasterMix (Applied Biosystem) and 7500 real-time PCR system (Applied Biosystems). The HPRT1 gene was used as an internal control.

[2] = tested on: TNF-α mRNA; assay: TNF-α mRNA expression in THP1 cells under 25 mM glucose (RT-PCR); assay type: cell-based, human; settings: 72 hours, relatively higher concentrations needed than for TXNIP mRNA
Method: FIGS. 2A-2B. FIG. 2A: C30 and C38 inhibited TXNIP mRNA expression in THP1 cells. THP1 cells were cultured under 25 mM glucose with the indicated concentrations of compounds for 72 hours. Cells were then collected for total RNA preparation. RT-PCR was performed, and data shown are the mean±SEM from triplicates. Statistical analysis was performed using one-way ANOVA, *p<0.0001. FIG. 2B: C30 and C38 inhibited TNF-α mRNA expression in THP1 cells. THP1 cells were cultured under 25 mM glucose with various concentrations of compounds as indicated for 72 hours and collected for total RNA preparation. RT-PCR was performed, and data shown are the mean±SEM from triplicates. Statistical analysis was performed using one-way ANOVA: *<0.02; **<0.0001.
Treatment with both agents lead to lower levels of TNF-α mRNA, although this required relatively higher concentrations compared to those that suppressed TXNIP mRNA (see FIG. 2A).
RNA extraction and quantitative RT-PCR. RNA was extracted using the Direct-zol™ RNA MiniPrep Plus (Zymo Research). […] Diluted cDNA was quantified using real-time PCR performed with Power SYBR Green qPCR MasterMix (Applied Biosystem) and 7500 real-time PCR system (Applied Biosystems). […]

[3] = tested on: TXNIP mRNA; assay: TXNIP mRNA in human islets under high glucose plus cytokines; assay type: cell-based; settings: 25 mM glucose + TNFα, IL1β, IFNγ, 40 hours
Method: FIGS. 18A-18B. C30 and C38 compounds protect cells from apoptosis in human islets. 100 IEQ human islets (Hu 1178) were cultured in PIM(R)© containing NG (5.8 mM glucose) or HG (25 mM glucose), and TNFα (20 ng/ml), IL1β (20 ng/ml), IFNγ (200 ng/ml) for 40 hours with or without lead compounds. Total RNA was prepared and RT PCR performed. FIG. 18A: BCL2/BAX ratios are the mean±SEM from triplicates. Statistical analysis was performed for each column vs. HG, 3 cytokines using one-way ANOVA: *p<0.002. FIG. 18B: TXNIP relative mRNA levels. Data shown are the mean±SEM from triplicates. Statistical analysis was performed for each column vs. HG, 3 cytokines using one-way ANOVA: **p<0.0001.
We mimicked T1D conditions in vitro (25 mM glucose, […], […] and […]) to induced apoptosis in human islets (obtained from the Southern California Islet Cell Resources Center at City of Hope). This high glucose/cytokine cocktail was able to induce apoptosis in cultured human islets as indicated by a decrease in the BCL2/BAX ratio (FIG. 18A).

[4] = tested on: human islets; assay: Human islet viability by FDA/PI staining under high glucose plus cytokines; assay type: cell-based; settings: HG/cytokine cocktail, 24 hr, 5 uM compound
Method: FIG. 19. Lead compounds enhance viability in human islets and protect them from apoptosis. 200 IEQ human islets (Hu 1183) were cultured in PIM(R)® medium containing NG (5.8 mM glucose) or HG (25 mM glucose), and mixture of TNFα (20 ng/ml), IL1β (20 ng/ml), and IFNγ (200 ng/ml) for 24 hours with or without C30 or C38. Islets were collected, washed with PBS once and stained with FDA and PI for 5 minutes and visualized with a Keyence All-in-One Fluorescence Microscope (BZ-X800E).
Lead compounds increase viability of human islets. […] Fluorescein diacetate/propidium iodide (FDA/PI) staining was employed to assess human islet viability.

SMILES | TNF-α mRNA expression [1] | TNF-α mRNA expression [2] | TXNIP expression increased during apoptosis [3] | human islet viability (FDA/PI staining) [4]
COc1cc(N2CC[C@@H](c3ccc4ccccc4c3)[C@H](O)C2)nc(N)n1 [Compound C30] | tended to increase TNF-α mRNA expression | reduced TNF-α expression | significantly ameliorated | protected human islets from death
c1ccc(CCNc2ncnc3c2oc2ccccc23)cc1 [Compound C38] | tended to increase TNF-α mRNA expression | reduced TNF-α expression | significantly ameliorated | protected human islets from death

Reference: patent publication US11964984B2, “TXNIP-TRX complex inhibitors and methods of using the same” (CITY OF HOPE, priority 2020, dated 2024)
